ChEMBL document CHEMBL3886696, “Compounds and methods for treating ocular diseases” (2016)

How the values were obtained:
[1] = target: T1, Prostaglandin E2 receptor EP2 subtype (Homo sapiens, UniProt P43116); experiment: (§1) cAMP Assay: EP4 receptors couple to Gs and mediate elevations in cAMP concentration, although they do participate in other pathways as well. There are some redundancies in function between EP2 and EP4 receptors. For example, both receptors induce PGE2-mediated RANKL through cAMP.; format: functional
T1 sequence (P43116 whole entry): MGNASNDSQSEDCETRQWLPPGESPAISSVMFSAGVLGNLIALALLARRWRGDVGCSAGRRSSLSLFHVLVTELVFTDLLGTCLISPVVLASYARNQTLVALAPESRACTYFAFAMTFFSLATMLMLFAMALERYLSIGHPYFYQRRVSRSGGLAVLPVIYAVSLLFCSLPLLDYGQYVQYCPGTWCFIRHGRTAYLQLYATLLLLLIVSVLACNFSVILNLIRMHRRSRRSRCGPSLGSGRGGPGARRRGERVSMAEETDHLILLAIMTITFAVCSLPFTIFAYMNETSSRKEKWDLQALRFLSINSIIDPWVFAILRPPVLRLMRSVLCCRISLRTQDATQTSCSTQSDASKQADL

[2] = target: T2, Prostaglandin E2 receptor EP4 subtype (Homo sapiens, UniProt P35408); experiment: as §1; format: functional
T2 sequence (P35408 whole entry): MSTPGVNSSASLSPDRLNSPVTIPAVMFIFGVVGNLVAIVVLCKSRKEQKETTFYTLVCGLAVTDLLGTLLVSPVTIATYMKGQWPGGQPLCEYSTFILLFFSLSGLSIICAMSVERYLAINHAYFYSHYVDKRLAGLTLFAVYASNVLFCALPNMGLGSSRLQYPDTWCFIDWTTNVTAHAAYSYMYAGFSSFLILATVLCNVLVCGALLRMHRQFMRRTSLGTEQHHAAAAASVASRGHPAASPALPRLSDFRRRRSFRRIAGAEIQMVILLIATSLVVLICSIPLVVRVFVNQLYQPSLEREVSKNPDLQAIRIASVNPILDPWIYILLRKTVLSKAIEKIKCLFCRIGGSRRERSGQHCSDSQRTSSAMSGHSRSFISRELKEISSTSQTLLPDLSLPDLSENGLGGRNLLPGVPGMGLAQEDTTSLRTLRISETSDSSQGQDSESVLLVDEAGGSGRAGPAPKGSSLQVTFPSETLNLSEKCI

[3] = target: T1, Prostaglandin E2 receptor EP2 subtype; experiment: (§2) Radioligand Binding: HEK-293 cells stably expressing the human or feline FP receptor, or EP1, EP2, or EP4 receptors were washed with TME buffer, scraped from the bottom of the flasks, and homogenized for 30 sec using a Brinkman PT 10/35 polytron. TME buffer was added to achieve a final 40 ml volume in the centrifuge tubes (the composition of TME is 100 mM TRIS base, 20 mM MgCl2, […]; 10N HCl is added to achieve a pH of 7.4). The cell homogenate was centrifuged at 19000 r.p.m. for 20 min at 4 °C. using a Beckman Ti-60 rotor. The resultant pellet was resuspended in TME buffer to give a final 1 mg/ml protein concentration, as determined by Biorad assay. Radioligand binding competition assays vs. [3H-]17-phenyl PGF2a (5 nM) were performed in a 100 μl volume for 60 min. Binding reactions were started by adding plasma membrane fraction. The reaction was terminated by the addition of 4 ml ice-cold TRIS-HCl buffer and rapid filtration through glass fiber GF/B filters using a Brandel cell harvester. The filters were washed 3 times with ice-cold buffer and oven dried for one hour. [3H−] PGE2 (specific activity 180 Ci mmol) was used as the radioligand for EP receptors. [3H] 17-phenyl PGF2a was employed for FP receptor binding studies. Binding studies employing EP1, EP2, EP4 and FP receptors were performed in duplicate in at least three separate experiments. A 200 μl assay volume was used. […]; format: cell-free
[4] = target: T2, Prostaglandin E2 receptor EP4 subtype; experiment: as §2; format: cell-free

EC50 [1]: 38 nM | EC50 [2]: 1 nM | EC50 [3]: 96 nM | EC50 [4]: 53 nM
SMILES: O=C(O)c1ccc(CCCN2[C@@H](/C=C/C(O)Cc3cccc(OC(F)(F)F)c3)CCS2(=O)=O)s1 (some centres undefined)
